pIC50: −log10 of the molar value. Where a SMILES comes first, the peptide text is derived from it. [ ]: non-standard residue; d: D form.
Experiments:
[1] = system: human bronchiolar epithelial cells (HBEs); test: Cytotoxicity (LDH release), human bronchiolar epithelial cells
[2] = system: P. aeruginosa 27312 wound biofilms; test: Porcine dermal biofilm wound infection model, P. aeruginosa; type: in vivo, porcine; Pseudomonas aeruginosa; details: compared with ciprofloxacin, silver sulfadiazine
Text: . Peptide (PEP1=DJK5; PEP3=AB103-D) solutions were used to hydrate Puracol® resorbable dressings made of collagen either alone or in the presence of antibiotic (ABX1=ciprofloxacin). Briefly, partial thickness wounds (10 mm×7 mm×1 mm deep) were created on the backs of the animals then infected with log-phase cultures of bacteria and allowed biofilms to form for 24-hrs. Dressings were applied to infected wounds of either MRSA S. aureus USA300 (FIG. 6A) or P. aeruginosa 27312 (FIG. 6B) as either a single treatment (day 1) or twice treated (Day 1 and 4) and all wounds were excised on day 7 for CFU renumeration. The amount of peptide applied in all treatments was 10 mg while 1 mg of ciprofloxacin was used in and treatment containing antibiotic. Mupirocin and silver sulfadiazine (SSD) were used as positive controls.
In vivo porcine dermal biofilm model: Peptide loaded dressings were evaluated using a porcine dermal biofilm infection model as described previously [Davis, S. C., et al. (2018). The wound-healing effects of a next-generation anti-biofilm silver Hydrofiber wound dressing on deep partial-thickness wounds using a porcine model. International Wound Journal, 15(5), 834-839]. Briefly, partial thickness wounds (10 mm×7 mm×1 mm deep) were created on the backs of the animals then infected with log-phase cultures of bacteria and allowed biofilms to form for 24-hrs. […]

[3] = system: P. aeruginosa PAO1 planktonic cells; test: Planktonic inhibition by AB103-D single substitution variants, P. aeruginosa; type: cell-based; details: Pseudomonas; read-out: IC50 of AB103-D alone, planktonic
Text: (§1) A series of single amino acid substitution variants of the AB103-D peptide were generated on cellulose arrays using SPOT-synthesis technology [Hilpert, K., Winkler, D. F., & Hancock, R. E. W. (2007). Peptide arrays on cellulose support: SPOT synthesis, a time and cost efficient method for synthesis of large numbers of peptides in a parallel and addressable fashion. Nature Protocols, 2(6), 1333-1349; Frank, R. (2002). The SPOT-synthesis technique. Synthetic peptide arrays on membrane supports-principles and applications. J Immunol Methods, 267(1), 13-26] to test for enhanced Gram-negative activity against P. aeruginosa and determine which residues contribute to the antibiofilm effects of this peptide. 96 AB103-D variants were generated by replacing each residue in the parent peptide with one of D-Arg, D-Lys, D-Glu, Gly, D-Ala, D-Ile, D-Leu, D-Val and D-Trp. The biofilm inhibitory activity of all 96 AB103-D variants was subsequently assessed against MRSA USA300 LAC or P. aeruginosa PAO1 in a microtitre plate assay [Haney, E. F., Trimble, M. J., & Hancock, R. E. W. (2021). Microtiter plate assays to assess antibiofilm activity against bacteria. Nature Protocols, 16(5), 2615-2632]. […].

[4] = system: peripheral blood mononuclear cells (PBMCs); test: Cytotoxicity (LDH release), PBMCs
MRSA planktonic cells = test: Planktonic inhibition by AB103-D single substitution variants, MRSA; type: cell-based, methicillin resistant Staphylococcus aureus; details: read-out: IC50 of AB103-D alone, planktonic
Text: as §1

[5] = system: S. epidermidis biofilms on Ker-CT epidermal skin; test: Skin organoid biofilm model, AB103-D loaded Medvance foam dressing, S. epidermidis; type: cell-based, Staphylococcus epidermidis
[6] = system: MRSA USA 300 LAC biofilms; test: Checkerboard biofilm synergy of AB103-D with antimicrobials, MRSA; type: cell-based, methicillin resistant Staphylococcus aureus

CC[C@@H](C)[C@@H](NC(=O)[C@@H](C)NC(=O)[C@@H](CCCNC(=N)N)NC(=O)[C@@H](Cc1c[nH]c2ccccc12)NC(=O)[C@@H](CCC(N)=O)NC(=O)[C@H](NC(=O)[C@@H](CCCNC(=N)N)NC(=O)[C@H](NC(=O)[C@H](NC(=O)[C@@H](CCCNC(=N)N)NC(=O)[C@H](NC(=O)[C@H](N)CCCNC(=N)N)C(C)C)C(C)C)[C@H](C)CC)C(C)C)C(N)=O [AB103-D, rvrvirvqwrai-NH2] (H-[dR][dV][dR][dV][dI][dR][dV][dQ][dW][dR][dA][dI]-NH2)
Cytotoxicity (LDH) [1]: low toxicity | Efficacy in porcine skin infection [2]: worked as well or better than ciprofloxacin, mupirocin (for MRSA) or silver sulfadiazine (for P. aeruginosa) | pIC50 [3]: 4.80 | Cytotoxicity (LDH) [4]: low toxicity | pIC50 (MRSA planktonic cells): 5.71 | Bacterial burden on organoid skin, loaded bandage [5]: effectively reduce the bacterial burden | Synergy with several other antimicrobials ([6]; MRSA USA 300 biofilms): proved synergistic with several other antimicrobials | MBIC of AB103-D alone ([6]; MRSA, 10% TSB + 0.1% glucose, at least 70% reduction of biofilm biomass): 1 µg/mL
